How the values were obtained:
[1] = biological target: T1, Alpha-2A adrenergic receptor (Homo sapiens, UniProt P08913); assay type: functional, cell-based
T1 sequence (P08913 whole entry): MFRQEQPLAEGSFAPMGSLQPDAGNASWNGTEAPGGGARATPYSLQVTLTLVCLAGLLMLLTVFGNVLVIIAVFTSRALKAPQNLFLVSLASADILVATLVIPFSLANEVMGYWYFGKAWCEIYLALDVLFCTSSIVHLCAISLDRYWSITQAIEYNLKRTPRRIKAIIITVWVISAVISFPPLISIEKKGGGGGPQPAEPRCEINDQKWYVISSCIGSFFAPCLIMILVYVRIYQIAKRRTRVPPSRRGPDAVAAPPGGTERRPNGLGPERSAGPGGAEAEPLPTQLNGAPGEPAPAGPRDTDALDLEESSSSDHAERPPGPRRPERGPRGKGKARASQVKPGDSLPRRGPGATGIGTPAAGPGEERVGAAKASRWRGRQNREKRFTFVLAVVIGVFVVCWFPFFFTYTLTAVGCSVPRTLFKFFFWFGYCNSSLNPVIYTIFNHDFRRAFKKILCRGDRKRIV

[2] = biological target: T2, Amine oxidase [flavin-containing] A (Homo sapiens, UniProt P21397); assay type: functional
T2 sequence (P21397 whole entry): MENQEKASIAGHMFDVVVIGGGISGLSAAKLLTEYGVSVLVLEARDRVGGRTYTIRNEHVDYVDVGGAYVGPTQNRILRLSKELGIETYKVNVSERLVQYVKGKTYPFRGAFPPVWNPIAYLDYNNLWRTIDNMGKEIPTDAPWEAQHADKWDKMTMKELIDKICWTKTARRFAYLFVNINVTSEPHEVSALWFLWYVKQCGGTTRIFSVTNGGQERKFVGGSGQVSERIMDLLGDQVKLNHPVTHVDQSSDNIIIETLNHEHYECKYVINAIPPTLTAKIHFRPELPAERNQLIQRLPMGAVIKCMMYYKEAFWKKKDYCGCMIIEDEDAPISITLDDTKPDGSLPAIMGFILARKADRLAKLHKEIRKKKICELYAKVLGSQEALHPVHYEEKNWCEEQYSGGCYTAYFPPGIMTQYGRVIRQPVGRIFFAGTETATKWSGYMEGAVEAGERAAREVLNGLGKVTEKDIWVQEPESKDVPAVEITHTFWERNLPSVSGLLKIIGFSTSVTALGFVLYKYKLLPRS

[3] = biological target: T3, Equilibrative nucleoside transporter 1 (Homo sapiens, UniProt Q99808)
T3 sequence (Q99808 whole entry): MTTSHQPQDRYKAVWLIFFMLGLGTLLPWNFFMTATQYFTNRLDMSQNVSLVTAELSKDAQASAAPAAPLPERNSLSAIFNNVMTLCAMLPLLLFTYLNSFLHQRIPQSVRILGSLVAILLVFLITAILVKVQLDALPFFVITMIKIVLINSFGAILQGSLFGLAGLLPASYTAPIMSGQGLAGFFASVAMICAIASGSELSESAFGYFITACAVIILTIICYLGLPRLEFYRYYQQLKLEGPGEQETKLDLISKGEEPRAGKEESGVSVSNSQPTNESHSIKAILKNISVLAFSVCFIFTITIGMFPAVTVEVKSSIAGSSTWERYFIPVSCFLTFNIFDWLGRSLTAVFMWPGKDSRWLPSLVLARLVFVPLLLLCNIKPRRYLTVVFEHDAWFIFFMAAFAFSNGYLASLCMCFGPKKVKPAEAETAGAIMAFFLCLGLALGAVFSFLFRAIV

[4] = biological target: Growth hormone secretagogue receptor type 1 (Homo sapiens, UniProt Q92847)
Chain of Growth hormone secretagogue receptor type 1 (Q92847 whole entry): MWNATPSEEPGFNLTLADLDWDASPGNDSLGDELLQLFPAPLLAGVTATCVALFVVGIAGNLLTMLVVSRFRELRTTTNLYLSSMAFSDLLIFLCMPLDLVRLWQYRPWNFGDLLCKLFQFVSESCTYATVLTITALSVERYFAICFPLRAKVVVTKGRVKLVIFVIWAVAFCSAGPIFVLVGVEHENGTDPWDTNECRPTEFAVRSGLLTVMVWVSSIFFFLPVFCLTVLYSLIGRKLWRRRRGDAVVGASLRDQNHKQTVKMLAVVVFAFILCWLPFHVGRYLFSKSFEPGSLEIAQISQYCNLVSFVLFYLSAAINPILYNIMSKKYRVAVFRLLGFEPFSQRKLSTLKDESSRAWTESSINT

[5] = biological target: T4, Neuropeptide Y receptor type 1 (Homo sapiens, UniProt P25929)
T4 sequence (P25929 whole entry): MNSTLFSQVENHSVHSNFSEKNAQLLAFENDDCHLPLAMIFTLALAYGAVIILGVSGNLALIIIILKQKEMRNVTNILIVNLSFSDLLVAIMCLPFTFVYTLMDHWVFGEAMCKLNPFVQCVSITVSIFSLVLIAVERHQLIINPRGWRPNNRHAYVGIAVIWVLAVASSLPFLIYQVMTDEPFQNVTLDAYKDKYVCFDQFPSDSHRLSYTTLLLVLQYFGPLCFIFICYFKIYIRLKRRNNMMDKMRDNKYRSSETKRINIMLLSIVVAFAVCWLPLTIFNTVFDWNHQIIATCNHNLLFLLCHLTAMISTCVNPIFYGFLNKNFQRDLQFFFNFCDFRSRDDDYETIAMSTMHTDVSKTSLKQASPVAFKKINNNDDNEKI

[6] = biological target: T5, Alpha-1A adrenergic receptor (Homo sapiens, UniProt P35348); assay type: functional, cell-based
T5 sequence (P35348 whole entry): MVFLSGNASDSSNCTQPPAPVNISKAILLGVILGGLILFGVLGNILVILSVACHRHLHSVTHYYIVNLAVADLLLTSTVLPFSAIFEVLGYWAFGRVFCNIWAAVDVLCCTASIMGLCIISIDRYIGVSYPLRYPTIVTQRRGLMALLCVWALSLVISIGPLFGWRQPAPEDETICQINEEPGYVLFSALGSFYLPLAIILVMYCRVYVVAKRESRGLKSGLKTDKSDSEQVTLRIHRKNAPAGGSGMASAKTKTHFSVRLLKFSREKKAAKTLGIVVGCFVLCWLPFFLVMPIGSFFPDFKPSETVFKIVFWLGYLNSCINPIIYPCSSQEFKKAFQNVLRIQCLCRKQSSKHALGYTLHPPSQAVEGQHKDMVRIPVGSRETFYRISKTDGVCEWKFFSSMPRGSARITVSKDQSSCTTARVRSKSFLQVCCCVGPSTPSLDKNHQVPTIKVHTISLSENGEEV
Also: assay procedure not described here.

Compound | AC50 [1] [µM] | AC50 [2] [µM] | AC50 [3] [µM] | AC50 [4] [µM] | AC50 [5] [µM] | AC50 [6] [µM]
NCC[C@H](O)C(=O)N[C@@H]1C[C@H](N)[C@@H](O[C@H]2O[C@H](CN)[C@@H](O)[C@H](O)[C@H]2O)[C@H](O)[C@H]1O[C@H]1O[C@H](CO)[C@@H](O)[C@H](N)[C@H]1O [AMIKACIN] | > 10 | > 10 | > 10 | > 10 | > 10 | 
O=C(O)CCCCCCCC(=O)O [AZELAIC ACID] | > 10 | > 10 | > 10 | > 10 | > 10 | 
C=CCC1(CC(C)C)C(=O)NC(=O)NC1=O [BUTALBITAL] | > 10 | > 30 | > 10 | > 10 | > 10 | > 30
O=C(O)C1=C(CSc2nnnn2CS(=O)(=O)O)CS[C@@H]2[C@H](NC(=O)[C@H](O)c3ccccc3)C(=O)N12 [CEFONICID] | > 30 | > 30 | > 30 | > 30 | > 30 | > 30
Cc1cc(O)c(C(=O)N[C@@H](C(=O)N[C@@H]2C(=O)N3C(C(=O)O)=C(CSc4nnnn4C)CS[C@H]23)c2ccc(O)cc2)cn1 [CEFPIRAMIDE] | > 30 | > 30 | > 30 | > 30 | > 30 | 
CCc1c(Cl)c(O)c(Cl)c(O)c1C(=O)O[C@H]1[C@H](O)[C@H](OC)[C@H](OC/C2=C\C=C\C[C@H](O)/C(C)=C/[C@H](CC)[C@@H](O[C@@H]3OC(C)(C)[C@@H](OC(=O)C(C)C)[C@H](O)[C@@H]3O)/C(C)=C/C(C)=C/C[C@@H]([C@@H](C)O)OC2=O)O[C@@H]1C [FIDAXOMICIN] |  | > 30 | 3.6 | > 30 | > 30 | 
C[C@]1(O)CC[C@H]2[C@@H]3CCC4=CC(=O)CC[C@]4(C)[C@@]3(F)[C@@H](O)C[C@@]21C [FLUOXYMESTERONE] | > 10 | > 30 | > 10 | > 10 | > 10 | 
Cc1ccc(S(=O)(=O)NC(=O)NN2CC3CCCC3C2)cc1 (stereo not given) [GLICLAZIDE] | > 10 | > 30 | > 10 | > 10 | > 10 | 
CCCC(=O)O[C@]1(C(=O)CO)CC[C@H]2[C@@H]3CCC4=CC(=O)CC[C@]4(C)[C@H]3[C@@H](O)C[C@@]21C [HYDROCORTISONE BUTYRATE] | > 10 | > 10 | > 10 | > 10 | > 10 | 
CC(C)Cn1cnc2c(N)nc3ccccc3c21 [IMIQUIMOD] | > 10 | > 10 | > 30 | > 10 | > 10 | 
CNC(C)CCC=C(C)C (stereo not given) [ISOMETHEPTENE] |  |  | > 30 | > 30 | > 30 | 
CC(C)(C)c1cc(C(C)(C)C)c(NC(=O)c2c[nH]c3ccccc3c2=O)cc1O [IVACAFTOR] | > 10 | > 10 | > 30 | > 30 | > 30 | 
CO[C@@H]1[C@@H](O[C@@H]2O[C@H](C)[C@@H](O[C@H]3C[C@@](C)(O)[C@@H](OC(=O)CC(C)C)[C@H](C)O3)[C@H](N(C)C)[C@H]2O)[C@@H](CC=O)C[C@@H](C)[C@@H](O)/C=C/C=C/C[C@@H](C)OC(=O)C[C@H]1OC(C)=O [JOSAMYCIN] | > 10 | > 10 | > 10 | > 10 | > 10 | 
COC(=O)C1=C(C)NC(C)=C(C(=O)OC(C)(C)CN(C)CCC(c2ccccc2)c2ccccc2)C1c1cccc([N+](=O)[O-])c1 (stereo not given) [LERCANIDIPINE] | > 30 | > 30 | > 30 | > 30 | > 30 | 
CC(Oc1c(Cl)cccc1Cl)C1=NCCN1 (stereo not given) [LOFEXIDINE] |  | > 30 | > 30 | > 30 | > 30 | 0.0071
Cc1cccc(C(C)c2cnc[nH]2)c1C (stereo not given) [MEDETOMIDINE] |  | > 30 | > 30 | > 30 | > 30 | 
C[C@H](N)[C@H](O)c1cccc(O)c1 [METARAMINOL] | > 10 | > 10 | > 10 | > 10 | > 10 | 
C[C@](N)(Cc1ccc(O)c(O)c1)C(=O)O [METHYLDOPA] | > 10 | > 10 | > 10 | > 10 | > 10 | 
O=C(O)[C@H](CC(=O)N1C[C@H]2CCCC[C@H]2C1)Cc1ccccc1 [MITIGLINIDE] | > 10 | > 10 | > 10 | > 10 | > 10 | 
O=C(NCCN1CCOCC1)c1ccc(Cl)cc1 [MOCLOBEMIDE] | > 10 |  | > 10 | > 10 | > 10 | 
N#Cc1ccc([C@H]2CCc3cncn32)c(F)c1 [OSILODROSTAT] |  |  | > 10 | > 10 | > 10 | 
CCCN(CCC)C(=O)C(CCC(=O)O)NC(=O)c1ccccc1 (stereo not given) [PROGLUMIDE] | > 10 | > 30 | > 30 | > 30 | > 30 | 
C#C[C@]1(O)CC[C@H]2[C@@H]3CCc4cc(OC5CCCC5)ccc4[C@H]3CC[C@@]21C [QUINESTROL] | > 10 | > 10 | > 10 | > 10 | > 10 | 
COC(=O)[C@H]1[C@H]2C[C@@H]3c4[nH]c5cc(OC)ccc5c4CCN3C[C@H]2C[C@@H](OC(=O)/C=C/c2cc(OC)c(OC)c(OC)c2)[C@@H]1OC [RESCINNAMINE] | > 10 | > 10 | > 30 | > 10 | > 10 | 
C=CCC1(C(C)CC)C(=O)NC(=O)NC1=O (stereo not given) [TALBUTAL] | > 10 | > 10 | > 10 | > 10 | > 10 | 
C[C@]12CC[C@H]3[C@@H](CCC4=CC(=O)CC[C@@]43C)[C@@H]1CC[C@@H]2O [TESTOSTERONE] | > 10 | > 10 | > 10 | > 10 | > 10 | 
C[C@H](CSC(=O)c1ccccc1)C(=O)N1C[C@@H](Sc2ccccc2)C[C@H]1C(=O)O [ZOFENOPRIL] | > 10 | > 10 | > 10 | > 10 | > 10 | 

From ChEMBL document CHEMBL5291721, “A preclinical secondary pharmacology resource illuminates target-adverse drug reaction associations of marketed drugs” (Nat Commun, 2023)
